# Experimental data as given in US20170258924A1, “Ester of a Phospholipid With Conjugated Linoleic Acid for the Treatment of Psychiatric Disorders With Neuroinflammatory and Neurodegenerative Basis” (UNIVERSITA' DEGLI STUDI DI CAGLIARI, priority 2014, published 2017).
# Legend:
# [1] = tested on: rat brain slices; experiment: ex vivo incubation of rat brain slices, levels of PEA and OEA; type: cell-based; conditions: rat brain slices incubated ex vivo for 15, 30 or 60 min; FIG. 1
# Text: The values, mean and DS, are expressed as molar % of the total fatty acids. Different letters indicate significant differences (p<0.05); the One-way ANOVA statistical analysis was used, with Tukey test for post-hoc analysis. Similar results were obtained by using pure (99%) c9,t11 isomer.
# (§1) The methods employed for the analysis of the levels of conjugated linoleic acid, PEA and OEA in vivo and in vitro are described in detail in (Melis et al. 2001) and in (Piscitelli et al. 2011), respectively.
# On the contrary, WY14643 (WY), a synthetic agonist of PPAR alpha used as a comparison since it is an inductor of PPAR alpha, increases the levels of PEA and OEA by about 3-4 times (FIG. 1B).
# [2] = tested on: frontal cortex of mice; experiment: in vivo administration to mice, levels of OEA in the frontal cortex; conditions: acute administration 12 hours prior to sacrifice, FIG. 2
# Text: The values, mean and DS, are expressed as pmoles/g tissue. Different letters indicate significant differences (p<0.05); the One-way ANOVA statistical analysis was used, with Tukey test for post-hoc analysis.
# as §1
# (§2) Since astrocytes are involved in neuroinflammation, the action of CLA (80% c9,t11 isomer) was also verified in cultures of astrocytes after having induced neuroinflammation with LPS. Oleic acid was used as a control.
# [3] = tested on: TNF alpha in astrocytes; experiment: TNF alpha in cultures of astrocytes after induced neuroinflammation with LPS; type: cell-based; conditions: treatment then LPS, oleic acid as control, p<0.05, FIG. 3
# Text: as §2
# [4] = tested on: TNF alpha in microglia; experiment: TNF alpha in microglia in vitro; type: cell-based
# Text: The PEA and OEA increase, since it sustains PPAR alpha activation, is crucial for the physiologic response to neuroinflammatory events, in addition to preserving the homeostasis of the dopaminergic system. In fact, CLA can reduce in vitro the levels of TNF alpha in both astrocytes and microglia.
molecule,measurement,setting,value
"Cc1cccc(Nc2cc(Cl)nc(SCC(=O)O)n2)c1C [WY14643, reference compound]",increase of the levels of OEA,[1],3-4 times
same,increase of the levels of PEA,[1],3-4 times
"conjugated linoleic acid [CLA (80% c9,t11 isomer)]",increase of the levels of OEA,[1],about 5 times
same,increase of the levels of PEA,[1],about 5 times
same,levels of OEA in the frontal cortex,[2],significantly increases
same,TNF alpha in cultured astrocytes,[3],significant decrease
same,TNF alpha in cultured astrocytes,[3]; listed as CLA,reduce
same,levels of TNF alpha in microglia,[4],reduce
